The values that follow come from US10323036B2 (Nimbus Lakshmi, Inc., priority 2016, dated 2019).

The term Kd denotes the equilibrium constant for the complex coming apart.

Chain of human TYK2 (JH2domain-pseudokinase) (P29597 556-888): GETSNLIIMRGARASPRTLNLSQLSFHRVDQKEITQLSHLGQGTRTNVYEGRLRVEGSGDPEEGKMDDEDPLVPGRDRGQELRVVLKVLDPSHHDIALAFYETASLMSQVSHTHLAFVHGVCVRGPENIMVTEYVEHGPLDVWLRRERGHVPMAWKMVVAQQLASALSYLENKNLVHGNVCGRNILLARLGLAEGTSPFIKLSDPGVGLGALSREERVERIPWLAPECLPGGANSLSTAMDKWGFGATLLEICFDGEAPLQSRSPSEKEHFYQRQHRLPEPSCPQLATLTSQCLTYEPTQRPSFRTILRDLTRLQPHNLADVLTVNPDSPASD

The assay concerns the target human TYK2 (JH2domain-pseudokinase) (Homo sapiens (Human), UniProt P29597). Kind of assay: TYK2 JH2 Domain Binding Assay (KINOMEscan). The conditions noted are these: Table 4, JH2 binding assay; read-out: JH2 Kd.
In the case of `CCNC(=O)c1ccc(Nc2cc(NC(=O)C3CC3)nc3[nH]n(C)c(=O)c23)c(OC)c1` [Compound I-114, 4-((6-(cyclopropanecarboxamido)-2-methyl-3-oxo-2,3-dihydro-1H-pyrazolo[3,4-b]pyridin-4-yl)amino)-N-ethyl-3-methoxybenzamide], the Kd was 1 to 10 nM.

For `COc1c(Cl)cccc1Nc1cc(Nc2ccc(N3CCOCC3)cn2)nc2[nH]n(C)c(=O)c12` [Compound I-115, 4-((3-chloro-2-methoxyphenyl)amino)-2-methyl-6-((5-morpholinopyridin-2-yl)amino)-1,2-dihydro-3H-pyrazolo[3,4-b]pyridin-3-one], the Kd fell in the range of 1 to 10 nM.

With `COc1c(Cl)cccc1Nc1cc(Nc2cncc(C#N)n2)nc2[nH]n(C)c(=O)c12` [Compound I-117, 6-((4-((3-chloro-2-methoxyphenyl)amino)-2-methyl-3-oxo-2,3-dihydro-1H-pyrazolo[3,4-b]pyridin-6-yl)amino)pyrazine-2-carbonitrile], the Kd was > 10 nM.

As to `Cn1[nH]c2nc(Nc3ccc(N4CCCCC4)cn3)cc(Nc3ccccc3S(C)(=O)=O)c2c1=O` [Compound I-118, 2-methyl-4-((2-(methylsulfonyl)phenyl)amino)-6-((5-(piperidin-1-yl)pyridin-2-yl)amino)-1,2-dihydro-3H-pyrazolo[3,4-b]pyridin-3-one], the Kd is > 10 nM.

`Cn1[nH]c2nc(Nc3cncc(C#N)n3)cc(Nc3ccccc3S(C)(=O)=O)c2c1=O` [Compound I-119, 6-((2-methyl-4-((2-(methylsulfonyl)phenyl)amino)-3-oxo-2,3-dihydro-1H-pyrazolo[3,4-b]pyridin-6-yl)amino)pyrazine-2-carbonitrile]: the Kd is 1 to 10 nM.

As to `COc1c(Nc2cc(Nc3cc(C)c(F)cn3)nc3[nH]n(C)c(=O)c23)cccc1-c1ccn(C)n1` [Compound I-120, 6-((5-fluoro-4-methylpyridin-2-yl)amino)-4-((2-methoxy-3-(1-methyl-1H-pyrazol-3-yl)phenyl)amino)-2-methyl-1,2-dihydro-3H-pyrazolo[3,4-b]pyridin-3-one], the Kd lay within 1 to 10 nM.

Turning to `COc1c(Nc2cc(Nc3ccc(C)nn3)nc3[nH]n(C)c(=O)c23)cccc1-c1ccn(C)n1` [Compound I-121, 4-((2-methoxy-3-(1-methyl-1H-pyrazol-3-yl)phenyl)amino)-2-methyl-6-((6-methylpyridazin-3-yl)amino)-1,2-dihydro-3H-pyrazolo[3,4-b]pyridin-3-one], the Kd lay within 0.5 to 1 nM.

With `COc1c(Nc2cc(Nc3cccc(C#N)n3)nc3[nH]n(C)c(=O)c23)cccc1-c1ccn(C)n1` [Compound I-122, 6-((4-((2-methoxy-3-(1-methyl-1H-pyrazol-3-yl)phenyl)amino)-2-methyl-3-oxo-2,3-dihydro-1H-pyrazolo[3,4-b]pyridin-6-yl)amino)picolinonitrile], the Kd lay within 0.1 to 0.5 nM.

In the case of `COc1c(Nc2cc(Nc3cc(C)nc(C)n3)nc3[nH]n(C)c(=O)c23)cccc1-c1ccn(C)n1` [Compound I-123, 6-((2,6-dimethylpyrimidin-4-yl)amino)-4-((2-methoxy-3-(1-methyl-1H-pyrazol-3-yl)phenyl)amino)-2-methyl-1,2-dihydro-3H-pyrazolo[3,4-b]pyridin-3-one], the Kd lay within 0.1 to 0.5 nM.

Take `COc1c(Nc2cc(Nc3ccc(N4CCCCC4)cn3)nc3[nH]n(C)c(=O)c23)cccc1-c1ccn(C)n1` [Compound I-124, 4-((2-methoxy-3-(1-methyl-1H-pyrazol-3-yl)phenyl)amino)-2-methyl-6-((5-(piperidin-1-yl)pyridin-2-yl)amino)-1,2-dihydro-3H-pyrazolo[3,4-b]pyridin-3-one]: the Kd lay in the range of 1 to 10 nM.

Regarding `Cn1[nH]c2nc(NC(=O)C3CC3)cc(Nc3ccccc3P(C)(C)=O)c2c1=O` [Compound I-125, N-(4-((2-(dimethylphosphoryl)phenyl)amino)-2-methyl-3-oxo-2,3-dihydro-1H-pyrazolo[3,4-b]pyridin-6-yl)cyclopropanecarboxamide], the Kd was > 10 nM.

Regarding `COCc1ccnc(Nc2cc(Nc3cccc(C(N)=O)c3OC)c3c(=O)n(C)[nH]c3n2)c1` [Compound I-126, 2-methoxy-3-((6-((4-(methoxymethyl)pyridin-2-yl)amino)-2-methyl-3-oxo-2,3-dihydro-1H-pyrazolo[3,4-b]pyridin-4-yl)amino)benzamide], the Kd is > 10 nM.

On to `COc1c(Nc2cc(NC(=O)C3CC3)nc3[nH]n(C)c(=O)c23)ccc(F)c1F` [Compound I-127, N-(4-((3,4-difluoro-2-methoxyphenyl)amino)-2-methyl-3-oxo-2,3-dihydro-1H-pyrazolo[3,4-b]pyridin-6-yl)cyclopropanecarboxamide], for which the Kd is > 10 nM.

Take `COc1c(Cl)cccc1Nc1cc(Nc2ccc(C(=O)N3CCCC3)c(C(F)(F)F)n2)nc2[nH]n(C)c(=O)c12` [Compound I-128, 4-((3-chloro-2-methoxyphenyl)amino)-2-methyl-6-((5-(pyrrolidine-1-carbonyl)-6-(trifluoromethyl)pyridin-2-yl)amino)-1,2-dihydro-3H-pyrazolo[3,4-b]pyridin-3-one]: the Kd was in the range of 0.1 to 0.5 nM.

For the compound `CN(c1ccccc1Nc1cc(NC(=O)C2CC2)nc2[nH]n(C)c(=O)c12)S(C)(=O)=O` [Compound I-129, N-(2-methyl-4-((2-(N-methylmethylsulfonamido)phenyl)amino)-3-oxo-2,3-dihydro-1H-pyrazolo[3,4-b]pyridin-6-yl)cyclopropanecarboxamide], the Kd lay in the range of 0.1 to 0.5 nM.

Consider `COc1c(Cl)cccc1Nc1cc(Nc2ccc(C(=O)N3CCOCC3)c(C(F)(F)F)n2)nc2[nH]n(C)c(=O)c12` [Compound I-130, 4-((3-chloro-2-methoxyphenyl)amino)-2-methyl-6-((5-(morpholine-4-carbonyl)-6-(trifluoromethyl)pyridin-2-yl)amino)-1,2-dihydro-3H-pyrazolo[3,4-b]pyridin-3-one], for which the Kd was 0.1 to 0.5 nM.

In the case of `COc1c(Nc2cc(NC(=O)C3CC3)nc3[nH]n(C)c(=O)c23)cccc1-c1noc(C)n1` [Compound I-131], the Kd was 0.1 to 0.5 nM.

On to `COc1c(Cl)cccc1Nc1cc(Nc2ccc(C)c(C#N)n2)nc2[nH]n(C)c(=O)c12` [Compound I-132, 6-((4-((3-chloro-2-methoxyphenyl)amino)-2-methyl-3-oxo-2,3-dihydro-1H-pyrazolo[3,4-b]pyridin-6-yl)amino)-3-methylpicolinonitrile], for which the Kd was 0.1 to 0.5 nM.

Take `COc1c(Nc2cc(Nc3cc(C)c(F)cn3)nc3[nH]n(C)c(=O)c23)cccc1-c1cnc[nH]1` [Compound I-133]: the Kd lay within 0.1 to 0.5 nM.

Turning to `COc1c(Cl)cccc1Nc1cc(Nc2ccc(N3CCCC3=O)c(C#N)n2)nc2[nH]n(C)c(=O)c12` [Compound I-134, 6-((4-((3-chloro-2-methoxyphenyl)amino)-2-methyl-3-oxo-2,3-dihydro-1H-pyrazolo[3,4-]pyridin-6-yl)amino)-3-(2-oxopyrrolidin-1-yl)picolinonitrile], the Kd lay in the range of 0.1 to 0.5 nM.

For the compound `COc1c(Cl)cccc1Nc1cc(Nc2cnc(C)c(C#N)n2)nc2[nH]n(C)c(=O)c12` [Compound I-135, 6-((4-((3-chloro-2-methoxyphenyl)amino)-2-methyl-3-oxo-2,3-dihydro-1H-pyrazolo[3,4-b]pyridin-6-yl)amino)-3-methylpyrazine-2-carbonitrile], the equilibrium dissociation constant (Kd) is 1 to 10 nM.
